Experiment: logP determination
Assay type: physicochemical
Conditions: for logP: Table 1 logP

Compound | logP | log P (S) (log P (S), stated in the preparation example)
CC(=O)CN(CCCF)c1c(-c2ccc(C(F)(F)F)cc2F)c(Cl)nc2ncnn12 [Example 36] | 3.01 | 
CC(=O)CN(CCCF)c1c(-c2ccc(C(F)(F)F)c(F)c2F)c(Cl)nc2ncnn12 [Example 40] | 3.14 | 
CCOC(CN(CCCF)c1c(-c2ccc(C(F)(F)F)c(F)c2F)c(Cl)nc2ncnn12)OCC [Example 32] | 4.16 | 
COC(CN(CCCF)c1c(-c2cccc(C(F)(F)F)c2Cl)c(Cl)nc2ncnn12)OC [Example 22] | 3.42 | 
CCOC(CN(CCCF)c1c(-c2cc(C(F)(F)F)ccc2Cl)c(Cl)nc2ncnn12)OCC [Example 25] | 4.10 | 
C=C(Cl)CN(CCCF)c1c(-c2ccc(C(F)(F)F)cc2F)c(Cl)nc2ncnn12 [Example 52] | 3.77 | 
COC(CN(CCCF)c1c(-c2cc(C(F)(F)F)ccc2Cl)c(Cl)nc2ncnn12)OC [Example 17] | 3.54 | 
CCOC(CN(CCCF)c1c(-c2c(Cl)c(F)cc(C(F)(F)F)c2Cl)c(Cl)nc2ncnn12)OCC [Example 27] | 4.45 | 
CN(C)C(=O)CN(CCCF)c1c(-c2cccc3c2OC(F)(F)O3)c(Cl)nc2ncnn12 [Example 8] | 2.52 | 
COC(=O)CN(CCCF)c1c(-c2c(Cl)c(F)cc(C(F)(F)F)c2Cl)c(Cl)nc2ncnn12 [Example 12] | 3.58 | 
COC(CN(CCCF)c1c(-c2cccc3c2OC(F)(F)O3)c(Cl)nc2ncnn12)OC [Example 23] | 3.24 | 
C=C(Cl)CN(CCCF)c1c(-c2cc(SC(F)(F)F)ccc2Cl)c(Cl)nc2ncnn12 [Example 53] | 4.27 | 
C=C(Br)CN(CCCF)c1c(-c2ccc(C(F)(F)F)cc2F)c(Cl)nc2ncnn12 [Example 44] | 3.85 | 
C=C(Br)CN(CCCF)c1c(-c2cc(C(F)(F)F)ccc2C(F)(F)F)c(F)nc2ncnn12 [Example 42] | 3.84 | 
COC(CN(CCCF)c1c(-c2c(Cl)c(F)cc(C(F)(F)F)c2Cl)c(Cl)nc2ncnn12)OC [Example 19] | 3.82 | 
CN(C)C(=O)CN(CCCF)c1c(-c2cccc(C(F)(F)F)c2Cl)c(Cl)nc2ncnn12 [Example 7] | 2.71 | 
COC(CN(CCCF)c1c(-c2ccc(C(F)(F)F)c(F)c2F)c(Cl)nc2ncnn12)OC [Example 24] | 3.55 | 
CN(C)C(=O)CN(CCCF)c1c(-c2ccc(C(F)(F)F)c(F)c2F)c(Cl)nc2ncnn12 [Example 9] | 2.86 | 
C=C(Cl)CN(CCCF)c1c(-c2ccc(C(F)(F)F)c(F)c2F)c(Cl)nc2ncnn12 [Example 56] | 3.86 | 
COC(=O)CN(CCCF)c1c(-c2ccc(C(F)(F)F)cc2F)c(Cl)nc2ncnn12 [Example 13] | 3.17 | 
C=C(Br)CN(CCCF)c1c(-c2c(Cl)c(F)cc(C(F)(F)F)c2Cl)c(Cl)nc2ncnn12 [Example 43] | 4.27 | 
CN(C)C(=O)CN(CCCF)c1c(-c2c(Cl)c(F)cc(C(F)(F)F)c2Cl)c(Cl)nc2ncnn12 [Example 4] | 3.01 | 
CN(C)C(=O)CN(CCCF)c1c(-c2cc(C(F)(F)F)ccc2C(F)(F)F)c(Cl)nc2ncnn12 [Example 3] | 2.89 | 
COC(=O)CN(CCCF)c1c(-c2c(F)cc(F)cc2C(F)(F)F)c(Cl)nc2ncnn12 [Example 74] | 2.92 | 
CCOC(CN(CCCF)c1c(-c2cccc(C(F)(F)F)c2Cl)c(Cl)nc2ncnn12)OCC [Example 30] | 4.00 | 
CN(C)C(=O)CN(CCCF)c1c(-c2ccc(C(F)(F)F)cc2F)c(Cl)nc2ncnn12 [Example 5] | 2.71 | 
C=C(Br)CN(CCCF)c1c(-c2cccc(C(F)(F)F)c2Cl)c(F)nc2ncnn12 [Example 46] | 3.73 | 

Compound | logP | log P (S) (log P (S), stated in the preparation example)
CCOC(CN(CCCF)c1c(-c2cccc3c2OC(F)(F)O3)c(Cl)nc2ncnn12)OCC [Example 31] | 3.81 | 
CC(=O)CN(CCCF)c1c(-c2cccc3c2OC(F)(F)O3)c(Cl)nc2ncnn12 [Example 39] | 2.80 | 
COC(=O)CN(CCCF)c1c(-c2ccc(C(F)(F)F)c(F)c2F)c(Cl)nc2ncnn12 [Example 16] | 3.29 | 
C=C(Br)CN(CCCF)c1c(-c2cccc3c2OC(F)(F)O3)c(Cl)nc2ncnn12 [Example 47] | 3.69 | 
CN(C)C(=O)CN(CCCF)c1c(-c2cc(C(F)(F)F)ccc2Cl)c(Cl)nc2ncnn12 [Example 2] | 2.77 | 
COC(CN(CCCF)c1c(-c2cc(SC(F)(F)F)ccc2Cl)c(Cl)nc2ncnn12)OC [Example 21] | 3.90 | 
C=C(Br)CN(CCCF)c1c(-c2cc(SC(F)(F)F)ccc2Cl)c(Cl)nc2ncnn12 [Example 45] | 4.36 | 
COC(CN(CCCF)c1c(-c2c(F)cc(F)cc2C(F)(F)F)c(Cl)nc2ncnn12)OC [Example 73] | 3.22 | 
CCOC(CN(CCCF)c1c(-c2ccc(C(F)(F)F)cc2F)c(Cl)nc2ncnn12)OCC [Example 28] | 4.04 | 
CCOC(CN(CCCF)c1c(-c2cc(SC(F)(F)F)ccc2Cl)c(Cl)nc2ncnn12)OCC [Example 29] | 4.47 | 
C=C(Br)CN(CCCF)c1c(-c2ccc(C(F)(F)F)c(F)c2F)c(Cl)nc2ncnn12 [Example 48] | 3.94 | 
CC(=O)CN(CCCF)c1c(-c2cc(C(F)(F)F)ccc2Cl)c(Cl)nc2ncnn12 [Example 33] | 3.07 | 
COC(=O)CN(CCCF)c1c(-c2cc(SC(F)(F)F)ccc2Cl)c(Cl)nc2ncnn12 [Example 14] | 3.57 | 
C=C(Cl)CN(CCCF)c1c(-c2c(Cl)c(F)cc(C(F)(F)F)c2Cl)c(Cl)nc2ncnn12 [Example 51] | 4.19 | 
C=C(Cl)CN(CCCF)c1c(-c2cc(C(F)(F)F)ccc2Cl)c(Cl)nc2ncnn12 [Example 49] | 3.84 | 
COC(=O)CN(CCCF)c1c(-c2cccc3c2OC(F)(F)O3)c(Cl)nc2ncnn12 [Example 1] |  | 2.93
CC(=O)CN(CCCF)c1c(-c2cccc(C(F)(F)F)c2Cl)c(Cl)nc2ncnn12 [Example 38] | 3.01 | 
CN(C)C(=O)CN(CCCF)c1c(-c2cc(SC(F)(F)F)ccc2Cl)c(Cl)nc2ncnn12 [Example 6] | 3.14 | 
COC(CN(CCCF)c1c(-c2ccc(C(F)(F)F)cc2F)c(Cl)nc2ncnn12)OC [Example 20] | 3.41 | 
C=C(Cl)CN(CCCF)c1c(-c2cc(C(F)(F)F)ccc2C(F)(F)F)c(F)nc2ncnn12 [Example 50] | 3.77 | 
C=C(Cl)CN(CCCF)c1c(-c2cccc(C(F)(F)F)c2Cl)c(F)nc2ncnn12 [Example 54] | 3.66 | 
C=C(Br)CN(CCCF)c1c(-c2cc(C(F)(F)F)ccc2Cl)c(Cl)nc2ncnn12 [Example 41] | 3.92 | 
C=C(Cl)CN(CCCF)c1c(-c2cccc3c2OC(F)(F)O3)c(Cl)nc2ncnn12 [Example 55] | 3.61 | 
COC(=O)CN(CCCF)c1c(-c2cccc(C(F)(F)F)c2Cl)c(Cl)nc2ncnn12 [Example 15] | 3.17 | 
CC(=O)CN(CCCF)c1c(-c2cc(SC(F)(F)F)ccc2Cl)c(Cl)nc2ncnn12 [Example 37] | 3.42 | 
COC(=O)CN(CCCF)c1c(-c2cc(C(F)(F)F)ccc2Cl)c(Cl)nc2ncnn12 [Example 10] | 3.23 | 

Source: patent US20040097522A1, “Triazolopyrimidines” (priority 2000, published 2004)
